Holding throughout (format): biochemical
One experiment deals with CDK4/Cyclin D1 (Homo sapiens (Human), UniProt P11802). Description: CDK4/Cyclin D1 CHEF Assay. As to conditions: AQT; read-out: CDK4/CyclinD1 AQT IC50. From the text:
CDK4/Cyclin D1 CHEF Assay
The purpose of CDK4/Cyclin Dl assay is to evaluate the inhibition (% inhibition and IC50 values) of small molecule inhibitors by using a Chelation-Enhance Fluorescence (CHEF) assay. In a CHEF assay, phosphorylation of a peptide substrate results in proportional increase in fluorescence. CHEF kinase assay use peptide substrates containing a synthetic alpha-amino acid with a side chain bearing an 8-hydroxyquinoline derivative (sulfonamido-oxide, Sox). Upon phosphorylation of a nearby serine, threonine or tyrosine and in the presence of Mg(II), the spectral properties of the Sox residue are altered, emitting 485 nm wavelength light when excited with a 360 nm wavelength light source. CDK4/Cyclin D1 catalyzes the phosphoryl transfer to the SOX-labeled substrate peptide AQT0258 from Assayquant Technologies. […] The reaction was initiated with the addition of substrate solution, following a 30-minute pre-incubation of enzyme and inhibitor at 22° C. in the reaction mix. Reactions were allowed to proceed for 3 hrs at 22° C., followed by fluorescence read of the reaction. The IC50 determinations were made from a plot of the fractional velocity as a function of inhibitor concentration fit to the 4 parameters IC50 equation.

A further experiment concerns the target CDK1/Cyclin B1 (Homo sapiens (Human), UniProt P06493). The experiment in a line: CDK1/Cyclin B1 ADP-Glo Kinase Assay. On the procedure:
CDK1/Cyclin B1 ADP-Glo Kinase Assay
(§1) The purpose of CDK1/Cyclin Bi assay is to evaluate the inhibition (% inhibition and IC50 values) of small molecule inhibitors by using a Luminescent based ADP-Glo assay. CDK1/Cyclin B1 catalyzes the production of ADP from ATP. ADP-Glo assay monitors ADP producing biochemical reactions. ADP-Glo is performed in 2 steps upon completion of kinase reaction: a combined termination of kinase reaction and depletion of remaining ATP in the first step, and conversion of generated ADP to ATP and the newly produced ATP to light output using luciferase/luciferin reaction in the second step. The luminescent signal generated is proportional to the ADP concentration produced and is correlated with the kinase activity. CDK1/Cyclin B1 was purchased from Carna (Cat 04-102). […] The assay was initiated with the addition of ATP-containing substrate solution, following a 30-minute pre-incubation of enzyme and inhibitor at room temperature in the reaction mixture. The reaction was stopped after 90 minutes at room temperature by the addition of 10 μL of ADP-GLO Reagent. After a 90 minute incubation, 20 μL of Kinase Detection Reagent was added. Samples were incubated for 40 minutes, after which plate well luminescence was measured on a Envision microplate reader. The IC50 determinations were made from a plot of the fractional velocity as a function of inhibitor concentration fit to the 4 parameters IC50 equation.
(In general: In ADP-Glo the light output rises with the ADP produced.)

For a further experiment, the target named is CDK6/Cyclin D3 (Homo sapiens (Human), UniProt Q00534). The experiment in a line: CDK6/Cyclin D3 ADP-Glo Kinase Assay. The settings on record: read-out: CDK6/CyclinD3 IC50. As for the experimental part:
CDK6/Cyclin D3 ADP-Glo Kinase Assay
as §1, with “of the CDK6/Cyclin D3” for “of CDK1/Cyclin Bi”, “values) in the presence” for “values)”, “assay. CDK6/Cyclin D3” for “assay. CDK1/Cyclin B1”, “activity. CDK6/Cychin D3” for “activity. CDK1/Cyclin B1”, “from Carna.” for “from Carna (Cat 04-102).”, “a 90-minute” for “a 90 minute”

Chain of CDK6/Cyclin D3 (Q00534 whole entry): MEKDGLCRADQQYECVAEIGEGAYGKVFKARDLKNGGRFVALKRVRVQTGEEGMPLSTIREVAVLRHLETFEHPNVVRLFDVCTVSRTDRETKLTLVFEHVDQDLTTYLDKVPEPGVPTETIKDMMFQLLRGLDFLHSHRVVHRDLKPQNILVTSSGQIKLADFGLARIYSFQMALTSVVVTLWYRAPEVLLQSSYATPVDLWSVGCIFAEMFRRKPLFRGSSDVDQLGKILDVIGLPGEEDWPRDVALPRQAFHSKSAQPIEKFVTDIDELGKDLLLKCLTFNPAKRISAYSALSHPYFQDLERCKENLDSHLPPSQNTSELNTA
Chain of CDK6/Cyclin D3 (P30281 whole entry partner): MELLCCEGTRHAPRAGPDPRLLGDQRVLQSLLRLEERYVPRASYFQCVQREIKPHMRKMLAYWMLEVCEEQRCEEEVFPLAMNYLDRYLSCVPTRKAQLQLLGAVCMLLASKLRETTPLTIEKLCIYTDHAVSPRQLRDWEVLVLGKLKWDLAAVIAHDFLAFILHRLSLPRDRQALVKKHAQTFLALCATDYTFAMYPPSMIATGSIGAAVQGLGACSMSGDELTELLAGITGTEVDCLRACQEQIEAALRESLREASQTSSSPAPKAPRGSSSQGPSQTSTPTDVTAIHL
Chain of CDK4/Cyclin D1 (P11802 whole entry, species assumed): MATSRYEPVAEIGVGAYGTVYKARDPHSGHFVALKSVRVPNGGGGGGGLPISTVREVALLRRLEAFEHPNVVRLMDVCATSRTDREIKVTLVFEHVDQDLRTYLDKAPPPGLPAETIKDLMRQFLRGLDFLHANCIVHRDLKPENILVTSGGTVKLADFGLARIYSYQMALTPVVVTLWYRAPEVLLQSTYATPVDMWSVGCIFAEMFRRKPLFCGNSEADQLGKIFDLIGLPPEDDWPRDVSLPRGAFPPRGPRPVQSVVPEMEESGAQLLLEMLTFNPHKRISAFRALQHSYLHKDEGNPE
Chain of CDK4/Cyclin D1 (P24385 whole entry partner, species assumed): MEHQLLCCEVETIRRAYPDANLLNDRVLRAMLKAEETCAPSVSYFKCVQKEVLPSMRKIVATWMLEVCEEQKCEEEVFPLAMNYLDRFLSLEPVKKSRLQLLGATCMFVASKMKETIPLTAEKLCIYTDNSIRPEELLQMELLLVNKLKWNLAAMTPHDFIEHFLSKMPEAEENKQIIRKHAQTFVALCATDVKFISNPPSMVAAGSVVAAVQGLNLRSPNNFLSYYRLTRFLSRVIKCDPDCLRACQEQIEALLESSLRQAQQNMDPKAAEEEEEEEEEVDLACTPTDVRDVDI
Chain of CDK1/Cyclin B1 (P06493 whole entry): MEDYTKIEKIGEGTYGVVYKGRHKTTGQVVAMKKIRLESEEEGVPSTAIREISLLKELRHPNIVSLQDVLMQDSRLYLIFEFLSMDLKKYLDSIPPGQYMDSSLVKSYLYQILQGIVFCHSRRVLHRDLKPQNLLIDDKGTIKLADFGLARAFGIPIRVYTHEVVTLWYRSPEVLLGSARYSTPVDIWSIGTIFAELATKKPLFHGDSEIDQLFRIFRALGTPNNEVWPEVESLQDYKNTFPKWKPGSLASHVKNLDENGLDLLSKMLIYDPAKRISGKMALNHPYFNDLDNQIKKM
Chain of CDK1/Cyclin B1 (P14635 whole entry partner): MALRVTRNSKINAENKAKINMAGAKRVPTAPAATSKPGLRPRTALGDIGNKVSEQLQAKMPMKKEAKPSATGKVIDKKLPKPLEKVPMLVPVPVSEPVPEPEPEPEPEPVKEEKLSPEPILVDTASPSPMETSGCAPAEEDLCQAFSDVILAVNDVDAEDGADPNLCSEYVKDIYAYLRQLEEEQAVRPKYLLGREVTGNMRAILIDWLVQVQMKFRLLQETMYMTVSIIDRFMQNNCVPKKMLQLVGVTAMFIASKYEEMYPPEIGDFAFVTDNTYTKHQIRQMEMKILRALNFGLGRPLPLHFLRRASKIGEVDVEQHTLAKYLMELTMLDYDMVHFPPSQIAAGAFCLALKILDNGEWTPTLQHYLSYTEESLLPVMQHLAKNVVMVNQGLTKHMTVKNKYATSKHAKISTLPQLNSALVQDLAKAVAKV

On to `Cc1cc2cnc(NC3CCN(S(=O)(=O)C4CC4)CC3)nc2c(N2CC(F)(F)C3(CNC3)C2)n1` [Compound 62, N-(1-(cyclopropylsulfonyl)piperidin-4-yl)-8-(8,8-difluoro-2,6-diazaspiro[3.4]octan-6-yl)-6-methylpyrido[3,4-d]pyrimidin-2-amine], for which the IC50 at CDK4/Cyclin D1, on CDK1/Cyclin B1 and at CDK6/Cyclin D3 was less than 200 nM in each case.

In the case of `CS(=O)(=O)N1CCC(Nc2ncc3cc(C(F)F)nc(N4CC5(CNCCC5(F)F)C4)c3n2)CC1` [Compound 65], the IC50 at CDK4/Cyclin D1, against CDK1/Cyclin B1 and on CDK6/Cyclin D3 was less than 200 nM in each case.

As for `COC1CC2(C1)CN(c1nc(C)cc3cnc(NC4CCN(S(=O)(=O)C5CC5)CC4)nc13)C2` [Compound 71, N-(1-(cyclopropylsulfonyl)piperidin-4-yl)-8-(6-methoxy-2-azaspiro[3.3]heptan-2-yl)-6-methylpyrido[3,4-d]pyrimidin-2-amine], the IC50 at CDK4/Cyclin D1 is less than 200 nM; on CDK1/Cyclin B1, 200 to 500 nM; at CDK6/Cyclin D3, less than 200 nM.

In the case of `COC1CC2(C1)CN(c1nc(C3CC3)cc3cnc(NC4CCN(S(C)(=O)=O)CC4)nc13)C2` [Compound 75, 6-cyclopropyl-8-(6-methoxy-2-azaspiro[3.3]heptan-2-yl)-N-(1-(methylsulfonyl)piperidin-4-yl)pyrido[3,4-d]pyrimidin-2-amine], the values for the IC50 on CDK4/Cyclin D1, against CDK1/Cyclin B1 and at CDK6/Cyclin D3 were less than 200 nM, greater than 2000 nM and less than 200 nM, respectively.

Take `COC1CC2(C1)CN(c1nc(C)cc3cnc(NC4CCN(S(C)(=O)=O)CC4)nc13)C2` [Compound 76, 8-(6-methoxy-2-azaspiro[3.3]heptan-2-yl)-6-methyl-N-(1-(methylsulfonyl)piperidin-4-yl)pyrido[3,4-d]pyrimidin-2-amine]: the IC50 at CDK4/Cyclin D1 was less than 200 nM; on CDK1/Cyclin B1 it was 200 to 500 nM; on CDK6/Cyclin D3, less than 200 nM.

In the case of `Cc1cc2cnc(NC3CCN(S(C)(=O)=O)CC3)nc2c(N2CC3(CCC(=O)N3)C2)n1` [Compound 77, 2-(6-methyl-2-((1-(methylsulfonyl)piperidin-4-yl)amino)pyrido[3,4-d]pyrimidin-8-yl)-2,5-diazaspiro[3.4] octan-6-one], the IC50 at CDK4/Cyclin D1 was less than 200 nM; against CDK1/Cyclin B1 it was 200 to 500 nM; on CDK6/Cyclin D3, less than 200 nM.

Consider `Cc1cc2cnc(NC3CCN(S(=O)(=O)C4CC4)CC3)nc2c(N2CC3(C2)CC(C)(O)C3)n1` [Compound 78, 2-(2-((1-(cyclopropylsulfonyl)piperidin-4-yl)amino)-6-methylpyrido[3,4-d]pyrimidin-8-yl)-6-methyl-2-azaspiro[3.3]heptan-6-ol], for which the IC50 is less than 200 nM on CDK4/Cyclin D1, 200 to 500 nM on CDK1/Cyclin B1 and 200 to 500 nM at CDK6/Cyclin D3.

As for `Cc1cc2cnc(NC3CCN(S(C)(=O)=O)CC3)nc2c(N2CC3(C2)CC(C)(O)C3)n1` [Compound 79, 6-methyl-2-(6-methyl-2-((1-(methylsulfonyl)piperidin-4-yl)amino)pyrido[3,4-d]pyrimidin-8-yl)-2-azaspiro[3.3]heptan-6-ol], the IC50 is less than 200 nM on CDK4/Cyclin D1, 200 to 500 nM against CDK1/Cyclin B1 and 200 to 500 nM on CDK6/Cyclin D3.

As for `Cc1cc2cnc(NC3CCN(S(C)(=O)=O)CC3)nc2c(N2CC3(CNC(=O)C3)C2)n1` [Compound 81, 2-(6-methyl-2-((1-(methylsulfonyl)piperidin-4-yl)amino)pyrido[3,4-d]pyrimidin-8-yl)-2,6-diazaspiro[3.4] octan-7-one], the IC50 on CDK4/Cyclin D1 is less than 200 nM; against CDK1/Cyclin B1, 200 to 500 nM; on CDK6/Cyclin D3, 200 to 500 nM.

For the compound `Cc1cc2cnc(NC3CCN(S(C)(=O)=O)CC3)nc2c(N2CC3(CCC(=O)NC3)C2)n1` [Compound 82, 2-(6-methyl-2-((1-(methylsulfonyl)piperidin-4-yl)amino)pyrido[3,4-d]pyrimidin-8-yl)-2,6-diazaspiro[3.5] nonan-7-one], the IC50 on CDK4/Cyclin D1, on CDK1/Cyclin B1 and on CDK6/Cyclin D3 was 200 to 500 nM each time.

On to `Cc1cc2cnc(Nc3ccc(CS(C)(=O)=O)cc3)nc2c(N2CC(O)(C3CC3)C2)n1` [Compound 83, 3-cyclopropyl-1-(6-methyl-2-((4-((methylsulfonyl)methyl)phenyl)amino)pyrido[3,4-d]pyrimidin-8-yl)azetidin-3-ol], for which the values for the IC50 on CDK4/Cyclin D1, against CDK1/Cyclin B1 and on CDK6/Cyclin D3 were less than 200 nM, 200 to 500 nM and less than 200 nM, respectively.

`Cc1cc2cnc(NC3CCN(S(=O)(=O)c4cnn(C)c4)CC3)nc2c(N2CC3(CCNCC3(F)F)C2)n1` [Compound 87, 8-(5,5-difluoro-2,7-diazaspiro[3.5]nonan-2-yl)-6-methyl-N-(1-((1-methyl-1H-pyrazol-4-yl)sulfonyl)piperidin-4-yl)pyrido[3,4-d]pyrimidin-2-amine]: the IC50 at CDK4/Cyclin D1, on CDK1/Cyclin B1 and on CDK6/Cyclin D3 was less than 200 nM each time.

Turning to `Cc1cc2cnc(NC3CCN(S(C)(=O)=O)CC3)nc2c(C2CC(O)(C3CC3)C2)n1` (stereo not drawn) [Compound 88, 1-cyclopropyl-3-(6-methyl-2-((1-(methylsulfonyl)piperidin-4-yl)amino)pyrido[3,4-d]pyrimidin-8-yl)cyclobutan-1-ol], the IC50 is less than 200 nM at CDK4/Cyclin D1, 200 to 500 nM on CDK1/Cyclin B1 and less than 200 nM on CDK6/Cyclin D3.

For the compound `Cc1cc2cnc(NC3CCN(S(=O)(=O)c4cnn(C)c4)CC3)nc2c(N2CC(F)(F)C3(CNC3)C2)n1` [Compound 89, 8-(8,8-difluoro-2,6-diazaspiro[3.4]octan-6-yl)-6-methyl-N-(1-((1-methyl-1H-pyrazol-4-yl)sulfonyl)piperidin-4-yl)pyrido[3,4-d]pyrimidin-2-amine], the IC50 on CDK4/Cyclin D1, at CDK1/Cyclin B1 and on CDK6/Cyclin D3 was less than 200 nM in each case.

Regarding `Cc1cc2cnc(NC3CCN(S(C)(=O)=O)CC3)nc2c(N2CC(O)(C(F)F)C2)n1` [Compound 91, 3-(difluoromethyl)-1-(6-methyl-2-((1-(methylsulfonyl)piperidin-4-yl)amino)pyrido[3,4-d]pyrimidin-8-yl)azetidin-3-ol], the IC50 at CDK4/Cyclin D1, on CDK1/Cyclin B1 and at CDK6/Cyclin D3 was less than 200 nM in each case.

For `Cc1cc2cnc(NC3CCN(S(C)(=O)=O)CC3)nc2c(N2CC(F)(F)C3(CNC3)C2)n1` [Compound 92, 8-(8,8-difluoro-2,6-diazaspiro[3.4]octan-6-yl)-6-methyl-N-(1-(methylsulfonyl)piperidin-4-yl)pyrido[3,4-d]pyrimidin-2-amine], the IC50 at CDK4/Cyclin D1, at CDK1/Cyclin B1 and at CDK6/Cyclin D3 was less than 200 nM throughout.

Turning to `CCS(=O)(=O)N1CCC(Nc2ncc3cc(C)nc(N4CC(F)(F)C5(CNC5)C4)c3n2)CC1` [Compound 95, 8-(8,8-difluoro-2,6-diazaspiro[3.4]octan-6-yl)-N-(1-(ethylsulfonyl)piperidin-4-yl)-6-methylpyrido[3,4-d]pyrimidin-2-amine], the IC50 on CDK4/Cyclin D1, at CDK1/Cyclin B1 and at CDK6/Cyclin D3 was less than 200 nM in each case.

As for `Cc1cc2cnc(NC3CCN(S(C)(=O)=O)CC3)nc2c(N2CC3(CNCC3F)C2)n1` (stereo not drawn) [Compound 98, 8-(8-fluoro-2,6-diazaspiro[3.4]octan-2-yl)-6-methyl-N-(1-(methylsulfonyl)piperidin-4-yl)pyrido[3,4-d]pyrimidin-2-amine], the IC50 on CDK4/Cyclin D1 was less than 200 nM; against CDK1/Cyclin B1, 200 to 500 nM; at CDK6/Cyclin D3, 200 to 500 nM.

The values are drawn from patent US20250235456A1, “METHODS OF USE FOR AZA-QUINAZOLINE COMPOUNDS” (Iambic Therapeutics, Inc., priority 2024, published 2025).
